Reference: US9040080B2, “Processing of heat-sensitive active agents” (SOUTHWEST RESEARCH INSTITUTE, priority 2008, dated 2015)

Experiments:
[1] = Drug degradation on direct melt processing (extrusion) with PLGA; assay type: physicochemical; conditions: directly melt processed by extrusion with poly(lactic acid-co glycolic acid) at 75:25 and 85:15 molar ratios, 140° C.-160° C.
Protocol: For example, about 5% drug degradation was found when brinzolamide, having a melting point in the range of 130-131° C. was directly melt processed by extrusion with poly(lactic acid-co glycolic acid) at 75:25 and 85:15 molar ratios. Melt processing temperatures of the poly(lactic-co glycolic acid) were in the range of 140° C.-160° C.

[2] = HPLC analysis of thermal degradation of brinzolamide in extruded fibers; assay type: physicochemical; conditions: PLGA microspheres (40%) extruded with poly(caprolactone) (60%)
From the text: The active ingredient brinzolamide was microencapsulated in two poly(lactic acid-co-glycolic acid) (PLGA) copolymers, one having a molar ratio of 75/25 (PLGA7525) and one having a molar ratio of 85/15 (PLGA 8515) as discussed further below. The theoretical amount of active agent was 40% by weight in each microencapsulation formulation. The two microsphere formulations were extruded with a lower melting point polymer, poly(caprolactone) (CAPA686), wherein the microspheres were present at 40% by weight and the poly(caprolactone) was present at 60% by weight, forming fibers incorporating the microcapsules therein.

SMILES: CCN[C@H]1CN(CCCOC)S(=O)(=O)c2sc(S(N)(=O)=O)cc21 [brinzolamide, (R)-(+)-4-Ethylamino-2-(3-methoxypropyl)-3,4-dihydro-2H-thieno[3,2-e]-1,2-thiazine-6-sulfonamide-1,1-dioxide]
- drug degradation [1]: about 5%
- thermal degradation of brinzolamide in the fibers [2]: absence of thermal degradation
